“Also recorded” adds a separate entry of the source. Read-outs that look alike come from different tables or passages of the source.
How the values were obtained:
[1] = tested on: soil urease; assay: Urea hydrolysis in bands of urea plus inhibitor in Hastings silt loam soil (banded system); type: biochemical; details: for Unhydrolyzed Urea, % Banded 3-Day / Unhydrolyzed Urea, % Banded 6-Day: Table VI, 41 mg inhibitor/band; for Unhydrolyzed Urea, % 3 Days / Unhydrolyzed Urea, % Banded 3-Day: 3 days; for Unhydrolyzed Urea, % 6 Days / Unhydrolyzed Urea, % Banded 6-Day: 6 days
[2] = tested on: soil urease; assay: Urea remaining unhydrolyzed in Hastings silt loam soil, well-mixed system; type: biochemical; details: for Soil urease inhibitory properties in words, well-mixed system: 1-, 3- and 6-day tests, compared with phenyl phosphorodiamidate; for Unhydrolyzed Urea, % Well-Mixed 1-Day / Unhydrolyzed Urea, % Well-Mixed 3-Day / Unhydrolyzed Urea, % Well-Mixed 6-Day: Table V, 41 mg inhibitor, 410 mg urea, 100 g soil, three replications, 25° C.; for Unhydrolyzed Urea, % Well-Mixed 3-Day: 3 days; for Unhydrolyzed Urea, % Well-Mixed 6-Day: 6 days; for Time until percentage urease inhibition reaches 0% (FIG. 1): FIG. 1, plotted and extrapolated from data of Table V, conventional test
[3] = tested on: soil urease; assay: Soil urease inhibition in Crowley silt loam soil, extended time evaluation system (urea added at selected intervals); type: biochemical; details: for Soil Urease Inhibition, 0 Days / Soil Urease Inhibition, 3 Days / Soil Urease Inhibition, 7 Days / Soil Urease Inhibition, 14 Days / Soil Urease Inhibition, 21 Days: 7 micromoles compound per 120 g Crowley silt loam, reincubated 16 hours; for Soil Urease Inhibition, 0 Days: urea added after 0 days; for Soil Urease Inhibition, 3 Days: urea added after 3 days; for Soil Urease Inhibition, 7 Days: urea added after 7 days; for Soil Urease Inhibition, 14 Days: urea added after 14 days; for Soil Urease Inhibition, 21 Days: urea added after 21 days
[4] = cited from earlier work
[5] = soil, 168 h; cited from earlier work
[6] = Table II, equimolar basis, 0.25 millimoles inhibitor/band, 410 mg urea/band, three replications, Hastings silt loam, 25° C.
[7] = Hastings silt loam, banded system, 3-day and 6-day tests
[8] = Table IV, inhibitor 10 percent of urea (wt/wt), 41 mg/band, two replications, Hastings silt loam
[9] = 410 mg urea/band, three replications, Hastings silt loam, 25° C.
[10] = Table III, inhibitor 10 percent of urea (wt/wt), 41 mg/band, four replications, Hastings silt loam, 25° C.

Row | Compound | Unhydrolyzed Urea, % 3 Days [1, 6] | Unhydrolyzed Urea, % 6 Days [1, 6] | Soil urease inhibition in words, banded soil tests [1, 7] | Unhydrolyzed Urea, % 3 Days [1, 8] | Unhydrolyzed Urea, % 6 Days [1, 8] | Unhydrolyzed Urea, % Banded 3-Day [1, 9] | Unhydrolyzed Urea, % Banded 6-Day [1, 9] | Soil urease inhibitory properties in words, well-mixed system [2] | Unhydrolyzed Urea, % Well-Mixed 1-Day [2] | Unhydrolyzed Urea, % Well-Mixed 3-Day [2] | Unhydrolyzed Urea, % Well-Mixed 6-Day [2] | Soil Urease Inhibition, 0 Days ([3]; 30° C.) | Soil Urease Inhibition, 3 Days ([3]; 30° C.) | Soil Urease Inhibition, 7 Days ([3]; 30° C.) | Soil Urease Inhibition, 14 Days ([3]; 30° C.) | Soil Urease Inhibition, 21 Days ([3]; 30° C.) | further results
1 | ClP1(Oc2ccccc2)=NP(Cl)(Oc2ccccc2)=NP(Cl)(Oc2ccccc2)=N1 (centres unmarked) [P3 N3 (Cl)3 (OC6 H5)3, 2,4,6-triphenoxy-2,4,6-trichlorocyclotriphosphazatriene] | – | – | – | – | – | – | – | – | – | – | – | – | – | – | – | – | Soil urease inhibition in words, banded soil tests [1]: not effective urease inhibitors
2 | NC(=O)NO [CO(NH2)(NHOH), Hydroxyurea, reference compound] | 20.3% | 0.2% | – | – | – | – | – | – | – | – | – | – | – | – | – | – | –
3 | CN(C)P1(N(C)C)=NP(N(C)C)(N(C)C)=NP(N(C)C)(N(C)C)=N1 [P3 N3 [N(CH3)2]6, 2,2,4,4,6,6-hexa(dimethylamino)cyclotriphosphazatriene] | – | – | do not exhibit urease inhibition | 0.0% | 0.0% | – | – | – | – | – | – | – | – | – | – | – | –
4 | NP1(Oc2ccccc2)=NP(N)(Oc2ccccc2)=NP(N)(Oc2ccccc2)=N1 (centres unmarked) [P3 N3 (NH2)3 (OC6 H5)3, 2,4,6-triphenoxy-2,4,6-triaminocyclotriphosphazatriene] | – | – | – | – | – | 21% | 0% | less than that of phenyl phosphorodiamidate | 82% | 37% | 0% | 22% | 79% | 74% | 84% | 82% | Urease inhibition sustained during the period from 7 to 21 days (FIG. 2) ([3]; Crowley silt loam, 30° C., period from 7 to 21 days): greater than 80%
5 | CC(=O)NO [CH3 C(NOH)(OH), Acetohydroxamic acid, reference compound] | 26.2% | 6.7% | – | – | – | – | – | – | – | – | – | – | – | – | – | – | –
6 | CN(C)P1(N(C)C)=NP(N)(N)=NP(N(C)C)(N(C)C)=N1 [P3 N3 (NH2)2 [N(CH3)2]4, 2,2,4,4,-tetra(dimethylamino)-6,6-diaminocyclotriphosphazatriene] | – | – | do not exhibit urease inhibition | – | – | – | – | – | – | – | – | – | – | – | – | – | –
7 | NP1(N)=NP(N)(Oc2ccccc2)=NP(N)(Oc2ccccc2)=N1 (centres unmarked) [P3 N3 (NH2)4 (OC6 H5)2, 2,4-diphenoxy-2,4,6,6-tetraaminocyclotriphosphazatriene] | – | – | inhibit soil urease during the 3-day and 6-day tests | – | – | 60% | 4% | comparable to phenyl phosphorodiamidate | 94% | 74% | 36% | 75% | 94% | 71% | 69% | 65% | Time until percentage urease inhibition reaches 0% (FIG. 1) [2]: about 10 days
8 | CNP1(NC)=NP(NC)(NC)=NP(NC)(NC)=N1 [P3 N3 (NHCH3)6, 2,2,4,4,6,6-hexa(monomethylamino)cyclotriphosphazatriene] | – | – | do not exhibit urease inhibition | 0.0% | 0.0% | – | – | – | – | – | – | – | – | – | – | – | –
9 | NP(N)(N)=O [PO(NH2)3, Phosphoryltriamide, reference compound] | 43.4% | 1.8% | – | 54.2% | 2.6% | – | – | – | – | – | – | 29% | 4% | 12% | 0% | 0% | Unhydrolyzed Urea, % 3 Days [1, 10]: 48.1%; Unhydrolyzed Urea, % 6 Days [1, 10]: 1.1%
10 | CNP1(NC)=NP(N)(N)=NP(NC)(NC)=N1 [P3 N3 (NH2)2 (NHCH3)4, 2,2,4,4,-tetra(monomethylamino)-6,6-diaminocyclotriphosphazatriene] | – | – | – | 0.5% | 0.0% | – | – | – | – | – | – | – | – | – | – | – | –
11 | NP1(N)=NP(N)(N)=NP(N)(N)=N1 [P3 N3 (NH2)6, 2,2,4,4,6,6-hexaaminocyclotriphosphazatriene] | 48.1% | 16.8% | comparable to PPDA as an inhibitor of soil urease activity; also recorded: inhibit soil urease during the 3-day and 6-day tests | 53.8% | 9.5% | 64% | 8% | less than that of phenyl phosphorodiamidate | 86% | 57% | 9% | 46% | 23% | 20% | 4% | 4% | Unhydrolyzed Urea, % 3 Days [1, 10]: 49.7%; Unhydrolyzed Urea, % 6 Days [1, 10]: 9.5%; Soil Urease Inhibition, 21 Days ([3]; 30° C., listed as hexaaminocyclotriphosphazatriene): about 4%; Urease inhibition compared with reference standard PPDA, in words (FIG. 2) ([3]; time independent modified soil evaluation procedure, 21-day test period): as good or better than PPDA for the time period from 14 to 21 days; Time of hydrolysis ([4]; pH 8, 15° C.): about 300 hours; Time of hydrolysis ([4]; pH 8, 30° C.): ~100 h; Percent hydrolyzed in 7 days [5]: 6-13%
12 | NP1(N)=NP(N)(N)=NP(N)(Oc2ccccc2)=N1 (centres unmarked) [P3 N3 (NH2)5 (OC6 H5), 2-phenoxy-2,4,4,6,6-pentaaminocyclotriphosphazatriene] | – | – | inhibit soil urease during the 3-day and 6-day tests | – | – | 61% | 7% | comparable to phenyl phosphorodiamidate | 96% | 82% | 44% | 95% | 75% | 49% | 42% | 44% | Time until percentage urease inhibition reaches 0% (FIG. 1) [2]: about 10 days

Source: US4670038A, “Cyclotriphosphazatriene-derivatives as soil urease activity inhibitors” (Tennessee Valley Authority, priority 1986, dated 1987)
